The test system of experiment [1] is Ca^+2 channel. The experiment is described as follows: Calcium channel blockade (FLIPR Calcium 6, KCl/CaCl2-stimulated SH-SY5Y cells). The following applies: 10 μM; SH-SY5Y cells stimulated with KCl/CaCl2. The experiment is classed as cell-based. How it is done: The calcium channel blockade assay was performed as described earlier. Briefly, the SH-SY5Y cells were seeded out in 96-well dark-walled plates at a density of 1 × 10^5 cells per well. After 24 h, the cells were loaded with FLIPR Calcium 6 indicator (Molecular Devices) for 2 h at 37 °C, according to the manufacturer’s protocol. Compounds were dissolved in an appropriate amount of DMSO at 10 mM concentration and diluted to a final concentration of 10 μM in Hanks′ Balanced Salt Solution (HBSS, Thermo Fisher Scientific) buffered with HEPES (Sigma-Aldrich) at pH = 7.4, and as such used were for treatment of indicator loaded cells (10 min at 37 °C). […] The baseline fluorescence was recorded for 5 s. Then, the cells were stimulated with KCl/CaCl2 solution (in HBSS, final concentration of KCl and CaCl2 was 90 and 5 mM, respectively) and the fluorescence was recorded for a further 30 s. Dimethyl sulfoxide 1% solution in HBSS was used as a vehicle control. Nimodipine (Cayman Chemical Company) was used as a reference inhibitor at 10 μM and compounds were assessed at the same final concentration in triplicate in three independent experiments. Fluorescent intensity values were normalized to the baseline.

A short description of experiment [2]: Oxygen radical absorbance capacity assay (ORAC-FL). Particulars: Trolox equivalents, mean (n = 3) ± SEM. How it is done: Briefly, fluorescein and antioxidant were incubated in a black 96-well microplate (Nunc) for 15 min at 37 °C. 2,2′-Azobis(amidinopropane) dihydrochloride was then added quickly using the built-in injector of Varioskan Flash plate reader (Thermo Scientific). […] All the reactions were made in triplicate and at least three different assays were performed for each sample [9, 30].

Experiment [3] concerns the target eqBuChE (Equus caballus, UniProt P81908). The experiment is described as follows: biochemical. The following applies: for inhibition at 10 µM: read-out: BuChE % inhibition at 10 μM (no IC50 given), 10 μM; for IC50: mean ± SEM, read-out: BuChE IC50. How it is done: (§1) The evaluation of the activity of compounds against both EeAChE and eqBuChE was evaluated following the Ellman spectrophotometric method. Briefly, the reaction happens in a final volume of 3 mL of a 0.1 M phosphate-buffered solution at pH = 8.0, containing 5,5′-dithiobis-2-nitrobenzoic acid, EeAChE or eqBuChE, tested compound and bovine albumin serum phosphate-buffered (pH = 8) solution After this pre-incubation period, acetylthiocholine iodide or butyrylthiocholine iodide was added, allowing 15 min of additional incubation time.

Experiment [4] has as its target EeAChE (Electrophorus electricus, UniProt O42275). Description: biochemical. The experiment is classed as biochemical. Particulars: read-out: AChE % inhibition at 10 μM (no IC50 given); EeAChE; 10 μM. On the procedure:
as §1

For experiment [5], the system named is SH-SY5Y cells. Description: Neuroprotection against oligomycin A/rotenone (O/R)-induced cell death in SH-SY5Y cells (MTS). The experiment is classed as cell-based. Particulars: for O/R (%) neuroprotection: O at 10 µM/R at 30 µM. How it is done: (§2) The most balanced compounds were then submitted to evaluation of their neuroprotection activity. For this purpose, cytotoxicity was induced by H2O2, a well-known toxic responsible for the generation of ROS and by mitochondrial respiratory chain blockers oligomycin rotenone (O/R). Prior to the neuroprotective assay, the effect of the compounds on cell viability was evaluated at 1 and 10 µM, showing no cytotoxicity against SH-SY5Y cells.
(§3) SH-SY5Y cells were seeded in 96-well culture plates at a density of 12 × 10^4 cells per well in DMEM/F12 (1:1) medium supplemented with 10% fetal bovine serum, 1X non-essential amino acids, 100 units/mL penicillin and […] streptomycin (Dutscher, France). After 48 h of incubation, the cultures were treated with 100 µl of the test compounds or DMSO (0.1%) in the same medium. After 24 h, the cells were co-incubated with H2O2 (200 µM) or O/R (O at 10 µM/R at 30 µM) with or without the tested compounds at noncytotoxic concentrations for an additional period of 24 h. The percentage of cell viability was measured using CellTiter 96 AQueous Non-Radioactive Cell Proliferation (MTS) Assay (Promega, France).

The test system of experiment [6] is SH-SY5Y cells. The experiment is described as follows: Neuroprotection against H2O2-induced cell death in SH-SY5Y cells (MTS). Type of experiment: cell-based. The following applies: for H2O2 (%) neuroprotection: H2O2 200 µM. How it is done: as §2, §3

Where “and” joins values, the source holds several entries; their conditions need not be identical. Equal entries are not always repeated.

Sequence of eqBuChE (P81908 whole entry): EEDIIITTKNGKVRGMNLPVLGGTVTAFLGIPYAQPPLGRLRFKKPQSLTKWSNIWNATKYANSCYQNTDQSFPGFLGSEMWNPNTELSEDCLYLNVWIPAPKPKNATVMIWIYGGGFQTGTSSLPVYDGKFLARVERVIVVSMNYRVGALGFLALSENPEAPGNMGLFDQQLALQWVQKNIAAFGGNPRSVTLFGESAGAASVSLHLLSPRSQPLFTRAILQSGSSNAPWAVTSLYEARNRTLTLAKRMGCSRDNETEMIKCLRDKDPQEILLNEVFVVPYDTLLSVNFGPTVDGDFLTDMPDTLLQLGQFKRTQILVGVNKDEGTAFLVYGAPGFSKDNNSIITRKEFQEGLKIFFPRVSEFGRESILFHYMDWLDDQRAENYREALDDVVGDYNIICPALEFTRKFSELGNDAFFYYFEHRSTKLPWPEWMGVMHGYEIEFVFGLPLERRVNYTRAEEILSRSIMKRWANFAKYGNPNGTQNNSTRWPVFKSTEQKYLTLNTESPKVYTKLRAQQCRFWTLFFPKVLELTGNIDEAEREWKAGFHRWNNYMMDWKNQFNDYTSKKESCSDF
Sequence of EeAChE (O42275 24-633): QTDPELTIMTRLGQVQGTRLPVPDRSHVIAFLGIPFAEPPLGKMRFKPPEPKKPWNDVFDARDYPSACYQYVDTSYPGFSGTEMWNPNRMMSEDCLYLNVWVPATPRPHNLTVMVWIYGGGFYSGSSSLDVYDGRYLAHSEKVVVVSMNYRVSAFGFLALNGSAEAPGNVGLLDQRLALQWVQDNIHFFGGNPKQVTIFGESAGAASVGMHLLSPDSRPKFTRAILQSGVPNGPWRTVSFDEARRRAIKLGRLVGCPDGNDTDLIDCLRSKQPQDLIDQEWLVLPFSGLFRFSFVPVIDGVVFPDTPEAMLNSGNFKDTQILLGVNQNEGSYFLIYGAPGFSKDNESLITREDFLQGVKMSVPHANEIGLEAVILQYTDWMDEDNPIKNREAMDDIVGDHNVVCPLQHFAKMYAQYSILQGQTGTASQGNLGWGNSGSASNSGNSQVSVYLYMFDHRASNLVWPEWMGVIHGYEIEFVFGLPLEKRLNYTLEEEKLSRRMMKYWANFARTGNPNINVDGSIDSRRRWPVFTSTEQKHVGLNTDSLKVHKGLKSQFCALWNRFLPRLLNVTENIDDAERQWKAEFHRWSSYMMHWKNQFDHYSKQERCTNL

With `CCOC(=O)C1=C(C)NC(C)=C(C(=O)OCC)C1c1ccc(OCCCCCN2CCOCC2)cc1` [3a, Diethyl-2,6-dimethyl-4-(4-((5-morpholinopentyl)oxy)phenyl)-1,4-dihydropyridine-3,5-dicarboxylate], in experiment [1], the “(%) Ca Flux Inhibition” value is listed as 18.58%. In addition, in experiment [2], the ORAC is 1.31 ± 0.01 TE. Moreover, the inhibition at 10 µM in experiment [3] and in experiment [4] was below 50% each time.
On to `COC(=O)C1=C(C)NC(C)=C(C(=O)OC)C1c1ccc(OCCCCCN2CCOCC2)cc1` [3b, Dimethyl-2,6-dimethyl-4-(4-((5-morpholinopentyl)oxy)phenyl)-1,4-dihydropyridine-3,5-dicarboxylate], for which the “(%) Ca Flux Inhibition” value in experiment [1] came out at 31.89%. Further, the ORAC in experiment [2] is 2.59 TE and 2.59 ± 0.04 TE. The inhibition at 10 µM in experiment [3] and in experiment [4] was below 50% in each case.
Turning to `CCOC(=O)C1=C(C)NC(C)=C(C(=O)OCC)C1c1ccc(OCCCCCN(CC)CC)cc1` [3c, Diethyl-4-(4-((5-(diethylamino)pentyl)oxy)phenyl)-2,6-dimethyl-1,4-dihydropyridine-3,5-dicarboxylate], in experiment [1], the “(%) Ca Flux Inhibition” value is listed as 58.21%. Moreover, the “neuroprotective effect against O/R (in words)” value in experiment [5] was “modest”. Moreover, the results for the “O/R (%) neuroprotection” value in experiment [5] (0.3 µM) and in experiment [5] (1 µM) were 22.27 ± 0.09% and 25.87 ± 0.04%, respectively. In addition, the ORAC in experiment [2] is 2.64 TE and 2.64 ± 0.04 TE. The “neuroprotective effect against H2O2 (in words)” value in experiment [6] is listed as “modest”. In addition, the “H2O2 (%) neuroprotection” value in experiment [6] (0.3 µM) was 12.37 ± 0.08%; in experiment [6] (1 µM) it was 24.17 ± 0.12%. In addition, the IC50 in experiment [3] was determined as 4.6 ± 0.1 µM. Moreover, the inhibition at 10 µM in experiment [4] was below 50%.
`CCN(CC)CCCCCOc1ccc(C2C(C(=O)OC)=C(C)NC(C)=C2C(=O)OC)cc1` [3d, Dimethyl-4-(4-((5-(diethylamino)pentyl)oxy)phenyl)-2,6-dimethyl-1,4-dihydropyridine-3,5-dicarboxylate]: in experiment [1], the “(%) Ca Flux Inhibition” value amounted to 39.55%. The ORAC in experiment [2] was 1.93 ± 0.68 TE. The inhibition at 10 µM in experiment [3] and in experiment [4] was below 50% throughout.
For the compound `CCOC(=O)C1=C(C)NC(C)=C(C(=O)OCC)C1c1ccc(OCCCCCN2CCN(C)CC2)cc1` [3e, Diethyl-2,6-dimethyl-4-(4-((5-(4-methylpiperazin-1-yl)pentyl)oxy)phenyl)-1,4-dihydropyridine-3,5-dicarboxylate], in experiment [1], the “(%) Ca Flux Inhibition” value was 40.51%. The ORAC in experiment [2] is given as 1.78 ± 0.00 TE. Also, the inhibition at 10 µM in experiment [3] and in experiment [4] was below 50% in each case.
On to `COC(=O)C1=C(C)NC(C)=C(C(=O)OC)C1c1ccc(OCCCCCN2CCN(C)CC2)cc1` [3f, Dimethyl-2,6-dimethyl-4-(4-((5-(4-methylpiperazin-1-yl)pentyl)oxy)phenyl)-1,4-dihydropyridine-3,5-dicarboxylate], for which the “(%) Ca Flux Inhibition” value in experiment [1] was found to be 38.4%. Also, the ORAC in experiment [2] is 1.38 ± 0.02 TE. In addition, the inhibition at 10 µM in experiment [3] and in experiment [4] was below 50% throughout.
Consider `CCOC(=O)C1=C(C)NC(C)=C(C(=O)OCC)C1c1ccc(OCCCCCN2CCC(Cc3ccccc3)CC2)cc1` [3g, Diethyl-4-(4-((5-(4-benzylpiperidin-1-yl)pentyl)oxy)phenyl)-2,6-dimethyl-1,4-dihydropyridine-3,5-dicarboxylate], for which the “(%) Ca Flux Inhibition” value in experiment [1] worked out at 53.6%. In experiment [2], the ORAC was 2.24 ± 0.04 TE. Also, the inhibition at 10 µM in experiment [3] and in experiment [4] was below 50% in each case.
As to `CCOC(=O)C1=C(C)NC(C)=C(C(=O)OCC)C1c1ccc(OCCCCCCN2CCOCC2)cc1` [3i, 3,5-Ethyl-2,6-dimethyl-4-(4-{[6-(morpholin-4-yl)hexyl]oxy}phenyl)-1,4-dihydropyridine-3,5-dicarboxylate], the “(%) Ca Flux Inhibition” value in experiment [1] is 47.55%. Besides, the ORAC in experiment [2] worked out at 1.22 ± 0.02 TE. Also, the inhibition at 10 µM in experiment [3] and in experiment [4] was below 50% in each case.
In the case of `COC(=O)C1=C(C)NC(C)=C(C(=O)OC)C1c1ccc(OCCCCCCN2CCOCC2)cc1` [3j, 3,5-Dimethyl-2,6-dimethyl-4-(4-{[6-(morpholin-4-yl)hexyl]oxy}phenyl)-1,4-dihydropyridine-3,5-dicarboxylate], the “(%) Ca Flux Inhibition” value in experiment [1] is given as 52.57%. For the same compound, the ORAC in experiment [2] is given as 0.99 ± 0.09 TE. For the same compound, the inhibition at 10 µM in experiment [3] and in experiment [4] was below 50% in each case.
On to `CCOC(=O)C1=C(C)NC(C)=C(C(=O)OCC)C1c1ccc(OCCCCCCN(CC)CC)cc1` [3k, 3,5-Diethyl-4-(4-{[6-(diethylamino)hexyl]oxy}phenyl)–2,6–dimethyl-1,4–dihydropyridine-3,5-dicarboxylate], for which the “(%) Ca Flux Inhibition” value in experiment [1] is 31.66%. Also, the ORAC in experiment [2] was 1.21 ± 0.12 TE. Also, the IC50 in experiment [3] amounted to 9.6 ± 0.3 µM. For the same compound, in experiment [4], the inhibition at 10 µM is below 50%.
Turning to `CCN(CC)CCCCCCOc1ccc(C2C(C(=O)OC)=C(C)NC(C)=C2C(=O)OC)cc1` [3l, 3,5-Dimethyl-4-(4-{[6-(diethylamino)hexyl]oxy}phenyl)-2,6–dimethyl-1,4–dihydropyridine-3,5-dicarboxylate], the “(%) Ca Flux Inhibition” value in experiment [1] is 39.74%. Further, in experiment [2], the ORAC is 0.91 TE and 0.91 ± 0.01 TE. For the same compound, in experiment [3], the IC50 was found to be 8.7 ± 0.1 µM. Moreover, the inhibition at 10 µM in experiment [4] was below 50%.
Turning to `COC(=O)C1=C(C)NC(C)=C(C(=O)OC)C1c1ccc(OCCCCCCN2CCN(C)CC2)cc1` [3n, 3,5-Dimethyl-2,6-dimethyl-4-(4-{[6-(4-methylpiperazin-1-yl)hexyl]oxy}phenyl)-1,4-dihydro-pyridine-3,5-dicarboxylate], in experiment [1], the “(%) Ca Flux Inhibition” value stood at 28.9%. Moreover, the ORAC in experiment [2] was found to be 1.39 ± 0.12 TE. For the same compound, the inhibition at 10 µM in experiment [3] and in experiment [4] was below 50% each time.
In the case of `CCOC(=O)C1=C(C)NC(C)=C(C(=O)OCC)C1c1ccc(OCCCCCCN2CCC(Cc3ccccc3)CC2)cc1` [3o], the “(%) Ca Flux Inhibition” value in experiment [1] is 80.19%. Also, the ORAC in experiment [2] amounted to 1.36 ± 0.01 TE. Further, the inhibition at 10 µM in experiment [3] and in experiment [4] was below 50% in each case.
Regarding `COC(=O)C1=C(C)NC(C)=C(C(=O)OC)C1c1ccc(OCCCCCCN2CCC(Cc3ccccc3)CC2)cc1` [3p, 3,5-Dimethyl-4-(4-{[6-(4-benzylpiperidin-1-yl)hexyl]oxy}phenyl)-2,6-dimethyl-1,4-dihydro-pyridine-3,5-dicarboxylate], the “(%) Ca Flux Inhibition” value in experiment [1] is recorded as 78.13%. For the same compound, the ORAC in experiment [2] was found to be 2.28 ± 0.01 TE. Besides, the inhibition at 10 µM in experiment [3] and in experiment [4] was below 50% each time.
With `COCCOC(=O)C1=C(C)NC(C)=C(C(=O)OC(C)C)C1c1cccc([N+](=O)[O-])c1` (stereo not drawn) [NIM, nimodipine, reference compound], the “(%) Ca Flux Inhibition” value in experiment [1] is recorded as 47.91%.

The record behind these values is article PMC7589057, “Synthesis of Hantzsch Adducts as Cholinesterases and Calcium Flux inhibitors, Antioxidants and Neuroprotectives” (International Journal of Molecular Sciences, 2020).
